Assays:
[1] = target: T1, DNA polymerase delta catalytic subunit (Homo sapiens, UniProt P28340); test: Inhibition of human delta DNA polymerase (95 uL) activity in a solution containg […] HEPES (pH 7.5) upon incubation for 12 minutes at 26 degrees C with the compound dissolved in DMSO
T1 sequence (P28340 whole entry): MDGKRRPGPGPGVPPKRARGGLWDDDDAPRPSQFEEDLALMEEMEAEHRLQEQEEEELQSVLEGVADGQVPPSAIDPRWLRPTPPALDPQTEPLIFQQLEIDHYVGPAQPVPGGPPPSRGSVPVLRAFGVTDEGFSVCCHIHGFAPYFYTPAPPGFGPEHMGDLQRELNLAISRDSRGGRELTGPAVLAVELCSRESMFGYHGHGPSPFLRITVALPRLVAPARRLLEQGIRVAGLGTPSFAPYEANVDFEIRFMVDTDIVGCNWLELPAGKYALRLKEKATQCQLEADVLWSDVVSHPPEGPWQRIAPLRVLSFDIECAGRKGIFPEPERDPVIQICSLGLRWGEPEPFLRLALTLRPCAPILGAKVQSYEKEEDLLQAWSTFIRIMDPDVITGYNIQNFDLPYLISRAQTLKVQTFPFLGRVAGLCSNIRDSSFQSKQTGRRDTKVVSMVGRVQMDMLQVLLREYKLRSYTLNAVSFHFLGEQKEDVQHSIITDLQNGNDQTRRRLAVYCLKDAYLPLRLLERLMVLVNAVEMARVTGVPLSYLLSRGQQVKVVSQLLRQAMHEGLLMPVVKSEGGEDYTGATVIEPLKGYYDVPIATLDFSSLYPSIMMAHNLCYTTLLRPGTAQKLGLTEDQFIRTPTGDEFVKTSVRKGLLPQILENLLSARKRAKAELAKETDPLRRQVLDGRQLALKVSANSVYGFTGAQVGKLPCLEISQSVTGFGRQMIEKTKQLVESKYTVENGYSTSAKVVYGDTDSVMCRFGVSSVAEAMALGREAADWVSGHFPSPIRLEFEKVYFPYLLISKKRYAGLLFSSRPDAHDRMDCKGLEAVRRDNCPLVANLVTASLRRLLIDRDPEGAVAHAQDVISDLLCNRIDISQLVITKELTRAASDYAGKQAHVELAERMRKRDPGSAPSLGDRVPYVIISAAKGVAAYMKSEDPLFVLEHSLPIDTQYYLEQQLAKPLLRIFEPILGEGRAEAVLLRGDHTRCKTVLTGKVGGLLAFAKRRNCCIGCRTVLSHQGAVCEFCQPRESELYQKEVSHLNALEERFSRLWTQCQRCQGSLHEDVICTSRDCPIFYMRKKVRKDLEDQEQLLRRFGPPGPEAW

[2] = target: T2, DNA polymerase catalytic subunit (Human cytomegalovirus (strain AD169) (HHV-5) (Human herpesvirus 5), UniProt P08546); test: Inhibition of human cytomegalovirus DNA polymerase (95 uL) activity in a solution containing […] HEPES (pH 7.5), incubation for 12 minutes at 26 degrees C; set-up: species or system Human betaherpesvirus 5
T2 sequence (P08546 whole entry): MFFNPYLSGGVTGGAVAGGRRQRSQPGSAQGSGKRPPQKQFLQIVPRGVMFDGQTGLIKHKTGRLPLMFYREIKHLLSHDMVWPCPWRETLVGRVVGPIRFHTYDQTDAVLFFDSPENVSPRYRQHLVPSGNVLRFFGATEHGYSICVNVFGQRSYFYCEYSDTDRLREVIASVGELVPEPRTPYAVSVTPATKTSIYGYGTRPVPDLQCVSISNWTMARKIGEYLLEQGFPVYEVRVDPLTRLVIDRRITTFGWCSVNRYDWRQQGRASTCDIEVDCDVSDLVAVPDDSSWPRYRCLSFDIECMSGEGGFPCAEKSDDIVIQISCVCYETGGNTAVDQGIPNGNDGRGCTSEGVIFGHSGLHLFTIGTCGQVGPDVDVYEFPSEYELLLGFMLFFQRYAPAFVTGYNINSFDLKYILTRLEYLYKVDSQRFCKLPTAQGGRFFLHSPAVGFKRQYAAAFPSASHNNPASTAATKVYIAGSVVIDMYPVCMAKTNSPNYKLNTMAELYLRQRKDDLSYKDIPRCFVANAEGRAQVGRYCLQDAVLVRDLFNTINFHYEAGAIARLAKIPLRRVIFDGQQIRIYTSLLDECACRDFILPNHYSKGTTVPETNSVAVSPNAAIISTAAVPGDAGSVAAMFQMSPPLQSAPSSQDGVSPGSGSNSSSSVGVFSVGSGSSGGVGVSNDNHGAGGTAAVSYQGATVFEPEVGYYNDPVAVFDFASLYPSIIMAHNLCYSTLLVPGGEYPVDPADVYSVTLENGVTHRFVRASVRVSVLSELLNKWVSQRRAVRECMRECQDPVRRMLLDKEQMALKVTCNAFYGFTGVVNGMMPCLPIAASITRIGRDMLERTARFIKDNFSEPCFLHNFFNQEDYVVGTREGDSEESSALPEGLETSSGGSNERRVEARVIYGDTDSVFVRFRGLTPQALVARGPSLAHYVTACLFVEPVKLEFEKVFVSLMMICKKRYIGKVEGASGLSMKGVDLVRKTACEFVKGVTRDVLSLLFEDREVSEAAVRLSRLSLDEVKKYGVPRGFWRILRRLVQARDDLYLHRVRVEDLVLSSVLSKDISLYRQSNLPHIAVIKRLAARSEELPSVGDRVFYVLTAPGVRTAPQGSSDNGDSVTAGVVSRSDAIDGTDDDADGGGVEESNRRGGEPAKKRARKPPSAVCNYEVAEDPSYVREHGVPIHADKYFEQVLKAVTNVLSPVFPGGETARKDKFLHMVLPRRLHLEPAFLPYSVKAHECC

Row | IC50 [1] | IC50 [2] | SMILES
1 | > 40000 nM | 400 nM | O=C(NCc1ccc(Cl)cc1)c1cnc2ccc(CCCO)cc2c1O
2 | > 40000 nM | 700 nM | Cn1cc(C(=O)NCc2ccc(Cl)cc2)c(=O)c2cc(CN3CCOCC3)ccc21

Row | SMILES | IC50 [1] | IC50 [2]
3 | Cn1cc(C(=O)NCc2ccc(Cl)cc2)c(=O)c2cc(CN3CCOCC3)sc21 | > 40000 nM | –

— ChEMBL document CHEMBL1141075, “4-Oxo-4,7-dihydrothieno[2,3-b]pyridines as non-nucleoside inhibitors of human cytomegalovirus and related herpesvirus polymerases” (J Med Chem, 2005)
